Data as given in ChEMBL document CHEMBL3525998, “Metabolism of saikosaponin a in rats: diverse oxidations on the aglycone moiety in liver and intestine in addition to hydrolysis of glycosidic bonds” (Drug Metab Dispos, 2013).

Experiments:
Format in all cases: ADME, organism-based
[1] = Drug excretion in Sprague-Dawley rat urine assessed as metabolite prosaikogenin f level at 15 mg/kg, iv by LC-DAD-IT-TOF-MS analysis; design: dose 15 mg/kg, route intravenous; conditions: in vivo
[2] = Drug excretion in Sprague-Dawley rat bile assessed as metabolite saikogenin f level at 15 mg/kg, iv by LC-DAD-IT-TOF-MS analysis; design: dose 15 mg/kg, route intravenous; conditions: in vivo
[3] = Drug excretion in Sprague-Dawley rat feces assessed as metabolite saikogenin f-27-oic acid level at 50 mg/kg, po administered through gavage by LC-DAD-IT-TOF-MS analysis; design: dose 50 mg/kg, route oral; conditions: in vivo
Rattus norvegicus = species: Rattus norvegicus; experiment: Drug metabolism in Sprague-Dawley rat assessed as retention time by LC-DAD-IT-TOF-MS analysis
[4] = Drug excretion in Sprague-Dawley rat bile assessed as metabolite prosaikogenin f level at 50 mg/kg, po administered through gavage by LC-DAD-IT-TOF-MS analysis; design: dose 50 mg/kg, route oral; conditions: in vivo
Plasma [5] = experiment: Drug metabolism in Sprague-Dawley rat plasma assessed as metabolite saikogenin f-27-oic acid formation at 50 mg/kg, po administered through gavage by LC-DAD-IT-TOF-MS analysis; design: dose 50 mg/kg, route oral; conditions: in vivo
[6] = Drug excretion in Sprague-Dawley rat feces assessed as metabolite delta1-saikogenin f level at 50 mg/kg, po administered through gavage by LC-DAD-IT-TOF-MS analysis; design: dose 50 mg/kg, route oral; conditions: in vivo
[7] = Drug excretion in Sprague-Dawley rat urine at 50 mg/kg, po administered through gavage by LC-DAD-IT-TOF-MS analysis; design: dose 50 mg/kg, route oral; conditions: in vivo
[8] = Drug excretion in Sprague-Dawley rat bile assessed as metabolite delta1-saikogenin f level at 15 mg/kg, iv by LC-DAD-IT-TOF-MS analysis; design: dose 15 mg/kg, route intravenous; conditions: in vivo
Plasma [9] = experiment: Drug uptake in Sprague-Dawley rat plasma at 15 mg/kg, iv by LC-DAD-IT-TOF-MS analysis; design: dose 15 mg/kg, route intravenous; conditions: in vivo
[10] = Drug excretion in Sprague-Dawley rat bile at 15 mg/kg, iv by LC-DAD-IT-TOF-MS analysis; design: dose 15 mg/kg, route intravenous; conditions: in vivo
Plasma [11] = experiment: Drug uptake in Sprague-Dawley rat plasma at 50 mg/kg, po administered through gavage by LC-DAD-IT-TOF-MS analysis; design: dose 50 mg/kg, route oral; conditions: in vivo
[12] = Drug excretion in Sprague-Dawley rat feces assessed as metabolite saikogenin f level at 15 mg/kg, iv by LC-DAD-IT-TOF-MS analysis; design: dose 15 mg/kg, route intravenous; conditions: in vivo
[13] = Drug excretion in Sprague-Dawley rat feces assessed as metabolite hydroxysaikosaponin a level at 15 mg/kg, iv by LC-DAD-IT-TOF-MS analysis; design: dose 15 mg/kg, route intravenous; conditions: in vivo
[14] = Drug excretion in Sprague-Dawley rat bile assessed as metabolite saikogenin f level at 50 mg/kg, po administered through gavage by LC-DAD-IT-TOF-MS analysis; design: dose 50 mg/kg, route oral; conditions: in vivo
Plasma [15] = experiment: Drug metabolism in Sprague-Dawley rat plasma assessed as metabolite saikogenin f formation at 50 mg/kg, po administered through gavage by LC-DAD-IT-TOF-MS analysis; design: dose 50 mg/kg, route oral; conditions: in vivo
[16] = Drug excretion in Sprague-Dawley rat urine assessed as metabolite delta1-saikogenin f level at 50 mg/kg, po administered through gavage by LC-DAD-IT-TOF-MS analysis; design: dose 50 mg/kg, route oral; conditions: in vivo
[17] = Drug excretion in Sprague-Dawley rat bile assessed as metabolite saikogenin f-27-oic acid level at 50 mg/kg, po administered through gavage by LC-DAD-IT-TOF-MS analysis; design: dose 50 mg/kg, route oral; conditions: in vivo
[18] = Drug excretion in Sprague-Dawley rat urine assessed as metabolite saikogenin f-27-oic acid level at 50 mg/kg, po administered through gavage by LC-DAD-IT-TOF-MS analysis; design: dose 50 mg/kg, route oral; conditions: in vivo
Plasma [19] = experiment: Drug metabolism in Sprague-Dawley rat plasma assessed as metabolite 3-keto-saikogenin f formation at 50 mg/kg, po administered through gavage by LC-DAD-IT-TOF-MS analysis; design: dose 50 mg/kg, route oral; conditions: in vivo

- Drug excretion [1]: metabolite_detected
- Drug excretion [2]: metabolite_not_detected
- Drug excretion [3]: metabolite_detected
- Retention_time (Rattus norvegicus): 39.9 min
- Drug excretion [4]: metabolite_detected
- Drug metabolism (Plasma [5]): metabolite_not_detected
- Drug excretion [6]: metabolite_detected
- Drug excretion [7]: metabolite_detected
- Drug excretion [8]: metabolite_not_detected
- Drug uptake (Plasma [9]): Active
- Drug excretion [10]: metabolite_detected
- Drug uptake (Plasma [11]): Active
- Drug excretion [12]: metabolite_detected
- Drug excretion [13]: metabolite_not_detected
- Drug excretion [14]: metabolite_not_detected
- Drug metabolism (Plasma [15]): metabolite_not_detected
- Drug excretion [16]: metabolite_detected
- Drug excretion [17]: metabolite_not_detected
- Drug excretion [18]: metabolite_detected
- Drug metabolism (Plasma [19]): metabolite_not_detected
SMILES: C[C@H]1O[C@@H](O[C@H]2CC[C@@]3(C)[C@@H](CC[C@]4(C)[C@@H]3C=C[C@]35OC[C@@]6(CCC(C)(C)C[C@H]63)[C@@H](O)C[C@]54C)[C@]2(C)CO)[C@H](O)[C@@H](O[C@@H]2O[C@H](CO)[C@@H](O)[C@H](O)[C@H]2O)[C@H]1O [SAIKOSAPONIN A]
